ChEMBL document CHEMBL1153759, “Surface plasmon resonance-based detection of ladder-shaped polyethers by inhibition detection method” (Bioorg Med Chem Lett, 2009)
Active and inactive are the calls of the source. The calls are words filed in the database; no cut-off is given here.

Key:
[1] = (§1) Inhibition of bovine spleen PDE2 by surface plasmon resonance assay; parameters: species or system Bos taurus
[2] = target: 3',5'-cyclic-AMP phosphodiesterase 4D (Homo sapiens, UniProt Q08499); assay: Binding affinity to recombinant PDE4D by surface plasmon resonance assay
Bos taurus [3] = species: Bos taurus; assay: Inhibition of bovine spleen PDE2 up to 100 uM after 20 to 40 seconds by surface plasmon resonance assay
Bos taurus [4] = species: Bos taurus; assay: as §1
[5] = Binding affinity to bovine spleen PDE2 by surface plasmon resonance assay; parameters: species or system Bos taurus

3',5'-cyclic-AMP phosphodiesterase 4D, sequence (Q08499 whole entry): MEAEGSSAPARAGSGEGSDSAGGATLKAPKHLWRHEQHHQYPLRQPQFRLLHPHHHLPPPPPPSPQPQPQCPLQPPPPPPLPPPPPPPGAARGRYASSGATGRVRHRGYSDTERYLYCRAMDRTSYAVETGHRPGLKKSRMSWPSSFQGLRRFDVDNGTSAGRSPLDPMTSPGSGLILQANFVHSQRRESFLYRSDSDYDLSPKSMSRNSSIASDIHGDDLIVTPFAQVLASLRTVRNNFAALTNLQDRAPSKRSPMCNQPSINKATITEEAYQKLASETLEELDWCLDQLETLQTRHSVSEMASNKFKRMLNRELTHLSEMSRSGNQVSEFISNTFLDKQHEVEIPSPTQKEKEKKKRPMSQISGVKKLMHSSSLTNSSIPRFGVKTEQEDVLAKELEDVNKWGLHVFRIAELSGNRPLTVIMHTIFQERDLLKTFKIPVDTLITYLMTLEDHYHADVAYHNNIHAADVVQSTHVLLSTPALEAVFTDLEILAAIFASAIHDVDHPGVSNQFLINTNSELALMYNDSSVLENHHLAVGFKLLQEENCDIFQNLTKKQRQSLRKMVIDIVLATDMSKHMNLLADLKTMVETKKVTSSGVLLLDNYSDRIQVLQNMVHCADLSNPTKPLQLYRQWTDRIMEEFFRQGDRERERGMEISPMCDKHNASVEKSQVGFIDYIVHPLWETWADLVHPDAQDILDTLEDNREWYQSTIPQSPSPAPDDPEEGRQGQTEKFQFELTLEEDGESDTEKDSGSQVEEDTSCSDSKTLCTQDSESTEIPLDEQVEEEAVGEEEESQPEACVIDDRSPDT

Compound | IC50 [1] [µM] | Kd [2] [µM] | inhibition (Bos taurus [3]) | inhibition (Bos taurus [4]) | Kd [5] [µM]
C[C@@]12CC[C@@H]3O[C@H](CO)[C@@H](O)C[C@H]3O[C@H]1C[C@H]1O[C@@H](CCOCc3ccccc3)[C@H](OCc3ccccc3)C[C@@H]1O2 | 13 | 11 |  |  | 
C[C@@]12CC[C@@H]3O[C@H](CO)[C@@H](O)C[C@H]3O[C@H]1C[C@H]1O[C@@H](CCO)[C@H](O)C[C@@H]1O2 | > 100 | 29 |  |  | 
OC[C@H]1O[C@@H](CCOCc2ccccc2)[C@H](OCc2ccccc2)C[C@@H]1O | > 100 | 80 |  |  | 
C[C@@]12CC[C@@H]3O[C@@H]4C[C@@H]5O[C@@H]6C[C@H](O)[C@@H](CO)O[C@H]6CC[C@@]5(C)O[C@H]4C[C@H]3O[C@H]1C[C@H]1O[C@@H](CCOCc3ccccc3)[C@H](OCc3ccccc3)C[C@@H]1O2 | 9.2 | 4.8 |  |  | 
C=C(C=O)C[C@@H]1C[C@H](O)[C@]2(C)O[C@@H]3C[C@@H]4O[C@@H]5C[C@]6(C)O[C@]7(C)CC[C@@H]8O[C@@H]9C[C@]%10(C)O[C@@H]%11C(C)=CC(=O)O[C@H]%11C[C@H]%10O[C@H]9C[C@@H](C)[C@H]8O[C@H]7C[C@H]6O[C@H]5C/C=C\[C@H]4O[C@H]3C[C@H]2O1 [BREVETOXIN] | 1.8 | 3.8 | Active |  | 
C=CCC(=C)/C=C/[C@@](C)(O)[C@H]1O[C@@H]2C[C@@H]3O[C@@H]4C[C@@H]5O[C@@H]6C[C@@H]7O[C@@H]8C[C@@H]9O[C@@H]%10C[C@@H]%11O[C@](C)(CCO)[C@@H](O)C[C@H]%11O[C@H]%10C[C@H]9O[C@H]8CC[C@@]7(C)O[C@@]6(C)CC[C@H](C)[C@H]5O[C@H]4C[C@@]3(C)O[C@H]2CC1=C [DESULFATED YESSOTOXIN] | 1.7 | 2 | Active | Dose-dependent effect | 
CC[C@@H](C(=O)[C@@H](C)[C@@H](O)[C@H](C)[C@@H]1O[C@@H]([C@@H](CC)C(=O)O)CC[C@@H]1C)[C@H]1O[C@]2(C=C[C@@H](O)[C@]3(CC[C@@](C)([C@H]4CC[C@](O)(CC)[C@H](C)O4)O3)O2)[C@H](C)C[C@@H]1C [SALINOMYCIN SODIUM] | > 100 |  |  |  | 
C=CCC(=C)/C=C/[C@@](C)(O)[C@H]1O[C@@H]2C[C@@H]3O[C@@H]4C[C@@H]5O[C@@H]6C[C@@H]7O[C@@H]8C[C@@H]9O[C@@H]%10C[C@@H]%11O[C@](C)(CCOS(=O)(=O)O)[C@@H](OS(=O)(=O)O)C[C@H]%11O[C@H]%10C[C@H]9O[C@H]8CC[C@@]7(C)O[C@@]6(C)CC[C@H](C)[C@H]5O[C@H]4C[C@@]3(C)O[C@H]2CC1=C [YESSOTOXIN] | 3 | 1 | Active |  | 2.2
